This is an account of results in the supplement of paper PMC10307832.

Assay in all cases: relative viability (nuclei count vs DMSO), 5 days (fraction); higher = more cells survive
Compound in experiment [1]: C[As](C)SC[C@H](NC(=O)CC[C@H](N)C(=O)O)C(=O)NCC(=O)O [Darinaparsin] + C[C@]1(O)C[C@@H](c2nc(-c3ccc4ccc(-c5ccccc5)nc4c3)c3c(N)nccn32)C1 [Linsitinib] (partner 1 µM)
In a few lines: (§1)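 Lung cancer cell lines were pin-tool dosed in 1536-well plates on the day after seeding, with either a lone drug or a fixed anchor-drug dose plus five library-drug doses (not always all listed) in √10 steps. Nuclei were counted on 4× images after 5 days. Relative viability is the ratio of treated-well to vehicle-well nuclei counts, with each value a median of duplicate plates.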

Compound in experiment [2]: CC1=C(C=C(C=C1)NC(=O)C2=CC(=CC=C2)C(C)(C)C#N)NC3=CC4=C(C=C3)N=CN(C4=O)C [AZ628] + O=C(c1cc(Cc2n[nH]c(=O)c3ccccc23)ccc1F)N1CCN(C(=O)C2CC2)CC1 [Olaparib] (partner 8 µM)
In a few lines: as §1

Compound in experiment [3]: C[As](C)SC[C@H](NC(=O)CC[C@H](N)C(=O)O)C(=O)NCC(=O)O [Darinaparsin] + C[C@@H](Oc1cc(-c2cnn(C3CCNCC3)c2)cnc1N)c1c(Cl)ccc(F)c1Cl [Crizotinib] (partner 1 µM)
In a few lines: as §1

Compound in experiment [4]: C1CC2=C(C1)C=C(C=C2)OC3=NC(=C4C(=N3)N(C=N4)CC5=CC=C(C=C5)C6=CC=CC=C6)N[C@@H](CC7=CC=CC=C7)CO [QS11] + Nc1ncn([C@H]2C[C@H](O)[C@@H](CO)O2)c(=O)n1 [Decitabine] (partner 2 µM)
A digest of the protocol:
as §1

In the case of NCI-H2009, the relative viability in experiment [1] (first compound 0.08 µM) is 1.29; in experiment [1] (first compound 0.8 µM), 1.18; in experiment [1] (first compound 2.53 µM), 1.13; in experiment [1] (first compound 8 µM), 1.15; in experiment [2] (first compound 0.08 µM), 0.711; in experiment [2] (first compound 0.253 µM), 0.778. Also, the relative viability in experiment [2] (first compound 0.8 µM) worked out at 0.862; in experiment [2] (first compound 2.53 µM) it was 0.789; in experiment [2] (first compound 8 µM) it was 0.461; in experiment [3] (first compound 0.08 µM), 1.09; in experiment [3] (first compound 0.8 µM), 0.991; in experiment [3] (first compound 2.53 µM), 0.953. Also, the relative viability in experiment [3] (first compound 8 µM) amounted to 1.02; in experiment [4] (first compound 0.08 µM) it was 0.362; in experiment [4] (first compound 0.253 µM) it was 0.426; in experiment [4] (first compound 0.8 µM), 0.364; in experiment [4] (first compound 2.53 µM), 0.409; in experiment [4] (first compound 8 µM), 0.371.
For the cell line SK-LU-1, the relative viability in experiment [1] (first compound 0.08 µM) turned out to be 1.35; in experiment [1] (first compound 0.8 µM), 0.976; in experiment [1] (first compound 2.53 µM), 1.07; in experiment [1] (first compound 8 µM), 1.35; in experiment [2] (first compound 0.08 µM), 0.376; in experiment [2] (first compound 0.253 µM) it was 0.37. Further, the relative viability in experiment [2] (first compound 0.8 µM) was 0.44; in experiment [2] (first compound 2.53 µM) it was 0.379; in experiment [2] (first compound 8 µM) it was 0.315; in experiment [3] (first compound 0.08 µM), 1.15; in experiment [3] (first compound 0.8 µM), 1.06; in experiment [3] (first compound 2.53 µM), 0.669. Also, the relative viability in experiment [3] (first compound 8 µM) came out at 0.946; in experiment [4] (first compound 0.08 µM), 0.586; in experiment [4] (first compound 0.253 µM), 0.59; in experiment [4] (first compound 0.8 µM), 0.595; in experiment [4] (first compound 2.53 µM) it was 0.6; in experiment [4] (first compound 8 µM) it was 0.57.
Consider RERF-LC-KJ, for which the relative viability in experiment [1] (first compound 0.08 µM) worked out at 1.03; in experiment [1] (first compound 0.8 µM), 0.979; in experiment [1] (first compound 2.53 µM), 0.876; in experiment [1] (first compound 8 µM), 0.946; in experiment [2] (first compound 0.08 µM) it was 0.807; in experiment [2] (first compound 0.253 µM), 0.925. Besides, the relative viability worked out at 1.01 in experiment [2] (first compound 0.8 µM); 1.01 in experiment [2] (first compound 2.53 µM); 0.865 in experiment [2] (first compound 8 µM); 1.01 in experiment [3] (first compound 0.08 µM); 0.925 in experiment [3] (first compound 0.8 µM); 0.791 in experiment [3] (first compound 2.53 µM). The relative viability was 0.96 in experiment [3] (first compound 8 µM); 0.765 in experiment [4] (first compound 0.08 µM); 0.691 in experiment [4] (first compound 0.253 µM); 0.619 in experiment [4] (first compound 0.8 µM); 0.692 in experiment [4] (first compound 2.53 µM); 0.524 in experiment [4] (first compound 8 µM).
As for NCI-H322M, the relative viability in experiment [1] (first compound 0.08 µM) was determined as 1.05; in experiment [1] (first compound 0.8 µM) it was 0.998; in experiment [1] (first compound 2.53 µM) it was 0.736; in experiment [1] (first compound 8 µM), 0.956; in experiment [2] (first compound 0.08 µM) it was 0.805; in experiment [2] (first compound 0.253 µM), 0.755. Moreover, the relative viability in experiment [2] (first compound 0.8 µM) amounted to 0.819; in experiment [2] (first compound 2.53 µM), 0.774; in experiment [2] (first compound 8 µM) it was 0.783; in experiment [3] (first compound 0.08 µM) it was 1.02; in experiment [3] (first compound 0.8 µM), 1.06; in experiment [3] (first compound 2.53 µM), 0.753. Besides, the relative viability in experiment [3] (first compound 8 µM) was determined as 1.03; in experiment [4] (first compound 0.08 µM), 0.741; in experiment [4] (first compound 0.253 µM) it was 0.739; in experiment [4] (first compound 0.8 µM), 0.672; in experiment [4] (first compound 2.53 µM), 0.801; in experiment [4] (first compound 8 µM), 0.935.
On to LK-2, for which the relative viability in experiment [1] (first compound 0.08 µM) was found to be 0.486; in experiment [1] (first compound 0.8 µM), 0.459; in experiment [1] (first compound 2.53 µM) it was 0.658; in experiment [1] (first compound 8 µM), 0.637; in experiment [2] (first compound 0.08 µM), 0.874; in experiment [2] (first compound 0.253 µM), 0.549. Also, the relative viability in experiment [2] (first compound 0.8 µM) was found to be 0.684; in experiment [2] (first compound 2.53 µM), 0.689; in experiment [2] (first compound 8 µM) it was 0.309; in experiment [3] (first compound 0.08 µM), 0.208; in experiment [3] (first compound 2.53 µM), 0.208; in experiment [3] (first compound 8 µM), 0.196. For the same cell line, the relative viability in experiment [4] (first compound 0.08 µM) was found to be 0.246; in experiment [4] (first compound 0.253 µM), 0.332; in experiment [4] (first compound 0.8 µM), 0.37; in experiment [4] (first compound 2.53 µM), 0.288; in experiment [4] (first compound 8 µM), 0.23.
In the case of SK-MES-1, the relative viability in experiment [1] (first compound 0.08 µM) was found to be 1.15; in experiment [1] (first compound 0.8 µM), 0.99; in experiment [1] (first compound 2.53 µM) it was 0.812; in experiment [1] (first compound 8 µM), 1.25; in experiment [2] (first compound 0.08 µM), 0.693; in experiment [2] (first compound 0.253 µM) it was 0.824. In addition, the relative viability in experiment [2] (first compound 0.8 µM) came to 0.9; in experiment [2] (first compound 2.53 µM) it was 0.737; in experiment [2] (first compound 8 µM), 0.392; in experiment [3] (first compound 0.08 µM) it was 1.19; in experiment [3] (first compound 0.8 µM) it was 1.04; in experiment [3] (first compound 2.53 µM), 0.838. Moreover, the relative viability in experiment [3] (first compound 8 µM) was found to be 1.11; in experiment [4] (first compound 0.08 µM), 0.361; in experiment [4] (first compound 0.253 µM), 0.444; in experiment [4] (first compound 0.8 µM), 0.339; in experiment [4] (first compound 2.53 µM), 0.447; in experiment [4] (first compound 8 µM) it was 0.351.
For NCI-H1299, the relative viability in experiment [1] (first compound 0.08 µM) is 1.1; in experiment [1] (first compound 0.8 µM), 1; in experiment [1] (first compound 2.53 µM), 0.912; in experiment [1] (first compound 8 µM), 1.2; in experiment [2] (first compound 0.08 µM) it was 1.12; in experiment [2] (first compound 0.253 µM), 1.18. For the same cell line, the relative viability in experiment [2] (first compound 0.8 µM) is 1.12; in experiment [2] (first compound 2.53 µM), 1.27; in experiment [2] (first compound 8 µM), 0.628; in experiment [3] (first compound 0.08 µM), 1.09; in experiment [3] (first compound 0.8 µM) it was 0.981; in experiment [3] (first compound 2.53 µM), 0.871. Also, the relative viability in experiment [3] (first compound 8 µM) is 1.1.
In the case of NCI-H2228, the relative viability in experiment [1] (first compound 0.08 µM) turned out to be 0.817; in experiment [1] (first compound 0.8 µM), 0.702; in experiment [1] (first compound 2.53 µM), 0.743; in experiment [1] (first compound 8 µM), 0.746; in experiment [2] (first compound 0.08 µM), 0.585; in experiment [2] (first compound 0.253 µM), 0.583. Moreover, the relative viability in experiment [2] (first compound 0.8 µM) was found to be 0.847; in experiment [2] (first compound 2.53 µM), 0.698; in experiment [2] (first compound 8 µM), 0.541; in experiment [3] (first compound 0.08 µM), 0.613; in experiment [3] (first compound 0.8 µM) it was 0.506; in experiment [3] (first compound 2.53 µM) it was 0.484. In addition, the relative viability in experiment [3] (first compound 8 µM) was found to be 0.512.
Turning to NCI-H1792, the relative viability stood at 0.571 in experiment [1] (first compound 0.08 µM); 0.488 in experiment [1] (first compound 0.8 µM); 0.402 in experiment [1] (first compound 2.53 µM); 0.536 in experiment [1] (first compound 8 µM); 0.508 in experiment [2] (first compound 0.08 µM); 0.332 in experiment [2] (first compound 0.253 µM). Further, the relative viability was 0.382 in experiment [2] (first compound 0.8 µM); 0.293 in experiment [2] (first compound 2.53 µM); 0.26 in experiment [2] (first compound 8 µM); 1.95 in experiment [3] (first compound 0.08 µM); 0.989 in experiment [3] (first compound 0.8 µM); 0.654 in experiment [3] (first compound 2.53 µM). The relative viability in experiment [3] (first compound 8 µM) was found to be 1.34; in experiment [4] (first compound 0.253 µM) it was 0.536; in experiment [4] (first compound 0.8 µM), 0.518; in experiment [4] (first compound 2.53 µM), 0.498; in experiment [4] (first compound 8 µM), 0.58.
